For one assay, the system named is P. aeruginosa. The assay is described as follows: Growth of duplex culture of P. aeruginosa with antibiotic after sequential extractions. The format is cell-based. The conditions noted are these: Dulbecco's PBS pH 7.3. The protocol: Separate cultures containing both dormant and vegetative cells of P. aeruginosa or E. coli were centrifuged and the pellets resuspended in an equal amount of Dulbecco's PBS pH 7.3 for serial extractions of 20 min. followed by different periods of adjustment at 37° C.

The test system of assay [1] is L. monocytogenes. Put plainly: Dialysis plus dilution of dormant L. monocytogenes, growth in presence of antibiotic. The format is cell-based. The conditions noted are these: 18 hrs. adjustment period. Here is the method:
An aliqout of culture was dialyzed against 250 volumes of PBS, pH 7.3 at 37° C. with stirring for 40 min. After an adjustment period of 18 hrs., the retentate was diluted serially 1:5 in PBS, pH 7.3, and streaked on agar.

For assay [2], the system named is L. monocytogenes. The assay is described as follows: Antibiotic tolerance of vegetative and aroused dormant L. monocytogenes (classification). The format is cell-based. The conditions noted are these: both native vegetative and aroused dormant cells.
Assay [3] has as its system L. caseii. The assay is described as follows: Growth of dormant L. caseii on agar with antibiotic after sequential extractions. The format is cell-based. The conditions noted are these: for Growth in presence of 60 IU/mL ampicillin: PBS pH 7.3. The protocol:
(§1) A culture containing 100% dormant bacteria was microfuged and the supernatant replaced with an equal volume of PBS, pH 7.3 and incubated at 37° C. After 20 minutes, the pellet was again recovered by centrifugation and resuspended in fresh PBS.
A 2 year old dormant broth culture of L. caseii was centrifuged and the supernatant replaced with an equal volume of Dulbeccos' PBS, 1× or 4× at pH 7.3, or water for 20 min. followed by different periods of adjustment at 37° C.

Assay [4] concerns L. monocytogenes. The assay is described as follows: L. monocytogenes arousal by serial dilutions in PBS, growth on antibiotic agar. The format is cell-based. The conditions noted are these: PBS pH 7.3.
The test system of assay [5] is L. caseii. The assay is described as follows: Dialysis plus dilution of dormant L. caseii, growth in presence of antibiotic. The format is cell-based. The conditions noted are these: for Growth in presence of 60 IU Amp/mL: dialysis, 18 hrs. adjustment period.
For assay [6], the system named is L. monocytogenes. The assay is described as follows: Growth (CFUs/mL or grow-out hrs.) of dormant L. monocytogenes on agar with antibiotic after sequential PBS extractions. The conditions noted are these: for Growth in presence of ampicillin: PBS pH 7.3. The format is cell-based. The protocol: as §1
A 4 year old dormant broth culture of L. monocytogenes was centrifuged and the supernatant replaced with an equal volume of Dulbecco's PBS, 1×, 4×, or 10×, pH 7.3 or 6.1 for 10, 20, or 40 min. extraction periods, followed by different periods of adjustment at 37° C. This was repeated and the pellets held for various times in buffer (adjustment period) before plating on agar. Inoculated agars were held at 37° C. for various lengths of time (grow-out period).

For the next assay, the system named is L. plantarum ATCC 14917. Put plainly: Dialysis of dormant L. plantarum ATCC 14917, tolerance to antibiotic. The format is cell-based. The conditions noted are these: retentate after four changes of 250 volumes of PBS, 44 hrs. of dialysis, no adjustment period.
The next assay deals with S. aureus. The assay is described as follows: Vancomycin tolerance of aroused dormant and vegetative S. aureus. The format is cell-based. The conditions noted are these: aroused dormant forms after heat-killing of vegetative forms. From the text: Dormant cells of S. aureus could be enumerated and classified in the presence of their vegetative forms by heat-killing the sensitive vegetative forms while preserving the more resistant dormant forms. […] Before heating, 4×10^7 CFUs/mL were viable, after heating, no viable cells were detected until the dormant cells were aroused by osmolal downshift gradients.

Assay [7] deals with spores of the genera Bacillus and Clostridium. The conditions noted are these: substance added to the buffer; neutral suspensions heated at 65° C. for 20 minutes; cited from earlier work.
[8] abbreviates: dilution after adjustment 1:125.
The mark [9] stands for this setting: dilution after adjustment: None.

For `CC1(C)S[C@@H]2[C@H](NC(=O)[C@H](N)c3ccccc3)C(=O)N2[C@H]1C(=O)O` [ampicillin], the “Growth in presence of 60 IU amp/mL” value with P. aeruginosa (3 × 20 min., adjustment time 24 hrs.) turned out to be 72 h; in the assay on P. aeruginosa (6 × 20 min., adjustment time 0 hrs.), 48 h; in the assay with L. caseii [3] (L. caseii ATCC 393, Dulbecco's PBS pH 7.3, 7 × 20 min., adjustment time 144 hrs.), 48 h; in the assay with L. monocytogenes [6] (Dulbecco's 4X PBS pH 7.3, 3 × 20 min., adjustment time 48 hrs.), 24 h; in the assay on L. monocytogenes [6] (Dulbecco's 4X PBS pH 7.3, 3 × 20 min., adjustment time 72 hrs.), 24 h; with L. monocytogenes [6] (Dulbecco's 10X PBS pH 7.3, 3 × 20 min., adjustment time 48 hrs.), 24 h. In addition, the “Growth in presence of 60 IU amp/mL” value was determined as 24 h with L. monocytogenes [6] (Dulbecco's 10X PBS pH 7.3, 3 × 20 min., adjustment time 72 hrs.); 24 h with L. monocytogenes [6] (Dulbecco's PBS pH 6.1, 5 × 20 min., adjustment time 120 hrs.); 24 h in the assay on L. monocytogenes [6] (Dulbecco's PBS pH 6.1, 7 × 20 min., adjustment time 96 hrs.); 48 h in the assay with L. monocytogenes [6] (Dulbecco's PBS pH 7.3, 1 × 20 min., adjustment time 0 hrs.); 48 h in the assay with L. monocytogenes [6] (Dulbecco's PBS pH 7.3, 3 × 20 min., adjustment time 0 hrs.); 48 h in the assay with L. monocytogenes [6] (Dulbecco's PBS pH 7.3, 3 × 20 min., adjustment time 48 hrs.). Besides, the “Growth in presence of 60 IU amp/mL” value stood at 48 h with L. monocytogenes [6] (Dulbecco's PBS pH 7.3, 3 × 20 min., adjustment time 72 hrs.); 24 h in the assay with L. monocytogenes [6] (Dulbecco's PBS pH 7.3, 3 × 40 min., adjustment time 96 hrs.); 24 h in the assay on L. monocytogenes [6] (Dulbecco's PBS pH 7.3, 5 × 10 min., adjustment time 96 hrs.); 48 h in the assay with L. monocytogenes [6] (Dulbecco's PBS pH 7.3, 6 × 10 min., adjustment time 0 hrs.); 48 h in the assay with L. monocytogenes [6] (Dulbecco's PBS pH 7.3, 6 × 20 min., adjustment time 0 hrs.); 48 h in the assay with L. monocytogenes [6] (Dulbecco's PBS pH 7.3, 6 × 20 min., adjustment time 48 hrs.). Also, the “Growth in presence of 60 IU amp/mL” value with L. monocytogenes [6] (Dulbecco's PBS pH 7.3, 6 × 20 min., adjustment time 72 hrs.) amounted to 48 h; in the assay on L. monocytogenes [6] (Dulbecco's PBS pH 7.3, 7 × 40 min., adjustment time 96 hrs.), 48 h; in the assay with L. monocytogenes [6] (Dulbecco's PBS pH 7.3, 9 × 20 min., adjustment time 0 hrs.), 48 h; in the assay with L. monocytogenes [6] (Dulbecco's PBS pH 7.3, 9 × 20 min., adjustment time 48 hrs.), 48 h; with L. monocytogenes [6] (Dulbecco's PBS pH 7.3, 9 × 20 min., adjustment time 72 hrs.) it was 48 h. Besides, the “Growth in presence of 60 IU Amp/mL” value is reported as 10^4 CFUs/mL with L. monocytogenes [1] (dilution after adjustment 1:5); 10^5 CFUs/mL with L. monocytogenes [1] (dilution after adjustment 1:25); 10^5 CFUs/mL in the assay with L. monocytogenes [1] (setting [8]); 10^3 CFUs/mL in the assay on L. monocytogenes [1] (setting [9]); 0 CFUs/mL in the assay on L. caseii [5] (dilution after adjustment 1:5); 0 CFUs/mL in the assay on L. caseii [5] (dilution after adjustment 1:25). In addition, the “Growth in presence of 60 IU Amp/mL” value in the assay with L. caseii [5] (setting [8]) and with L. caseii [5] (setting [9]) was 0 CFUs/mL each time. Further, in the assay with L. monocytogenes [2], the “Tolerance to 60 IU of ampicillin per mL” value was “tolerant”. The “Growth in presence of 60 IU/mL ampicillin” value with L. caseii [3] (1st-5th 20 min. extraction), in the assay with L. caseii [3] (6th 20 min. + 72 hrs. @ 37° C.), in the assay with L. caseii [3] (6th 20 min. + 96 hrs. @ 37° C.) and with L. caseii [3] (Control (no extraction)) was 0 CFUs/mL throughout. For the same compound, the “Periods of adjustment required for growth on: 60 IU Amp” value in the assay on L. monocytogenes [4] (serial dilutions 1:10), with L. monocytogenes [4] (serial dilutions 1:100), in the assay with L. monocytogenes [4] (serial dilutions 1:125) and in the assay with L. monocytogenes [4] (serial dilutions 1:1000) was 144 h each time. Besides, the Tolerance to ampicillin entry in the assay with L. caseii [5] (L. caseii ATCC 393 aroused by dialysis pH 7.3, dilutions 1:5 and 1:5, adjustment period 124 hours at 37° C.) was “not tolerant”; with L. plantarum ATCC 14917, “not tolerant”. The “Growth in presence of ampicillin” value is 10^4 CFUs/mL with L. monocytogenes [6] (1st 20 min. extraction); 10^4 CFUs/mL in the assay on L. monocytogenes [6] (2nd 20 min. extraction); 10^4 CFUs/mL in the assay on L. monocytogenes [6] (3rd 20 min. extraction); 10^5 CFUs/mL in the assay on L. monocytogenes [6] (4th 20 min. extraction); 10^5 CFUs/mL with L. monocytogenes [6] (5th 20 min. extraction); 10^5 CFUs/mL in the assay on L. monocytogenes [6] (6th 20 min. extraction). Moreover, the “Growth in presence of ampicillin” value with L. monocytogenes [6] (Control (no extraction)) is listed as 0 CFUs/mL.

Turning to `CN[C@H](CC(C)C)C(=O)N[C@H]1C(=O)N[C@@H](CC(N)=O)C(=O)N[C@H]2C(=O)N[C@H]3C(=O)N[C@H](C(=O)N[C@H](C(=O)O)c4cc(O)cc(O)c4-c4cc3ccc4O)[C@H](O)c3ccc(c(Cl)c3)Oc3cc2cc(c3O[C@@H]2O[C@H](CO)[C@@H](O)[C@H](O)[C@H]2O[C@H]2C[C@](C)(N)[C@H](O)[C@H](C)O2)Oc2ccc(cc2Cl)[C@H]1O` [vancomycin], the “Tolerance to 30 μg vancomycin/mL” value with S. aureus was “showed tolerance”.

For the compound `C[C@H](N)C(=O)O` [L-alanine], in assay [7], the spores that germinate is 100%.

For `CN(C)[C@@H]1C(O)=C(C(N)=O)C(=O)[C@@]2(O)C(O)=C3C(=O)c4c(O)cccc4[C@@](C)(O)[C@H]3C[C@@H]12` [tetracycline], the “Periods of adjustment required for growth on: 30 μg TC” value in the assay on L. monocytogenes [4] (serial dilutions 1:10), in the assay with L. monocytogenes [4] (serial dilutions 1:100) and with L. monocytogenes [4] (serial dilutions 1:1000) was 144 h throughout.

For the compound `Nc1ncnc2c1ncn2[C@@H]1O[C@H](CO)[C@@H](O)[C@H]1O` [adenosine], in [7], the spores that germinate is recorded as 100%.

For `N[C@@H](Cc1ccc(O)cc1)C(=O)O` [L-tyrosine], the spores that germinate in [7] is given as 100%.

(Values after US6589771B1, “Methods for arousing dormant bacteria” (Immunom Technologies, Inc., priority 1999, dated 2003).)
